Where two headings read alike, the source gives them in different places.
How the values were obtained:
[1] = target: T1, Hsp90 in C. albicans (SC5314) lysate (Candida albicans, UniProt P46598); assay: biochemical; format: binding; settings: for Ratio re. GdA: EC50 relative to GdA; for Ratio re. GdA / FP signal (raw) / FP signal relative to 0 nM / FP signal / EC50: SC5314 lysate; for FP signal: raw; for EC50: not normalized, oxime panel experiment 220817, read-out: EC50
T1 construct: endogenous in cells; host or cells: C. albicans SC5314 whole-cell lysate
T1 sequence (P46598 whole entry): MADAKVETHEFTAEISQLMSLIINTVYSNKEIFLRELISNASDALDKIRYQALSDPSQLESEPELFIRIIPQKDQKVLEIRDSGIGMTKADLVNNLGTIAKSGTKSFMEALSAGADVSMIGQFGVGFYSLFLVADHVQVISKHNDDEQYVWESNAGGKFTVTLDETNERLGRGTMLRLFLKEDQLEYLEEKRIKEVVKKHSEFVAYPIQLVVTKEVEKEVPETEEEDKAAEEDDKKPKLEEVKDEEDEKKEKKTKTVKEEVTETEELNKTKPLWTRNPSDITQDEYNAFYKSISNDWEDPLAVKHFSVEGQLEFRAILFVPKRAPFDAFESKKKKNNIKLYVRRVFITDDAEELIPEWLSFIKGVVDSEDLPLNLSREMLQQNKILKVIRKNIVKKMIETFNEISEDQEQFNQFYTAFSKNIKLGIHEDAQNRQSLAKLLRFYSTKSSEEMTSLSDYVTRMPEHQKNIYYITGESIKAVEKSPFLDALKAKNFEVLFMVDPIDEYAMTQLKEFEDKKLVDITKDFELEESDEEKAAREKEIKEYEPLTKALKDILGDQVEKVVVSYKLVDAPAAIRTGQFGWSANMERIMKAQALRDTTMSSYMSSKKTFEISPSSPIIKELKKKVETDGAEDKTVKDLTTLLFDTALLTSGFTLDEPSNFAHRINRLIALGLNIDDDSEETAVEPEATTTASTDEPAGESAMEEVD

Hsp90 in HEPG2 lysate = settings: for FP signal (raw) / FP signal / EC50: HepG2 lysate; for FP signal: raw; for EC50: oxime panel experiment 220817
[2] = ratio of GdA-normalized EC50s, human over fungal lysate
[3] = ratio of GdA-relative EC50 ratios, HepG2 over SC5314
[4] = EC50 / EC50 of GdA in HepG2 lysate
[5] = EC50 relative to GdA, HEPG2 lysate
[6] = HEPG2 lysate, log concentration 0.137354 (1.372 nM)
[7] = HEPG2 lysate, log concentration 0.61437 (4.115 nM)
[8] = HEPG2 lysate, log concentration 1.09153 (12.346 nM)
[9] = HEPG2 lysate, log concentration 1.56864 (37.037 nM)
[10] = HEPG2 lysate, log concentration 2.04576 (111.111 nM)
[11] = HEPG2 lysate, log concentration 2.52288 (333.333 nM)
[12] = HEPG2 lysate, log concentration 3 (1000 nM)
[13] = HEPG2 lysate, log concentration 3.47712 (3000 nM)
[14] = HEPG2 lysate, log concentration -0.340084 (0.457 nM)

CC1CC2OC2C=CC=CC(=NOCc2ccccc2)Cc2c(Cl)c(O)cc(O)c2C(=O)O1 (mixture of isomers) [compound 217]
Ratio re. GdA [1]: 23.0159 | FP signal (raw) ([1]; 0.457 nM): 197 | FP signal relative to 0 nM ([1]; 0.457 nM compound): 0.9426 | FP signal ([1]; 0.457 nM compound): 197 | FP signal (raw) ([1]; 1.372 nM): 194 | FP signal relative to 0 nM ([1]; 1.372 nM compound): 0.9282 | FP signal ([1]; 1.372 nM compound): 194 | FP signal (raw) ([1]; 4.115 nM): 198 | FP signal relative to 0 nM ([1]; 4.115 nM compound): 0.9474 | FP signal ([1]; 4.115 nM compound): 198 | FP signal (raw) ([1]; 12.346 nM): 197 | FP signal relative to 0 nM ([1]; 12.346 nM compound): 0.9426 | FP signal ([1]; 12.346 nM compound): 197 | FP signal (raw) ([1]; 37.037 nM): 192 | FP signal relative to 0 nM ([1]; 37.037 nM compound): 0.9187 | FP signal ([1]; 37.037 nM compound): 192 | FP signal (raw) ([1]; 111.111 nM): 183 | FP signal relative to 0 nM ([1]; 111.111 nM compound): 0.8756 | FP signal ([1]; 111.111 nM compound): 183 | FP signal (raw) ([1]; 333.333 nM): 134 | FP signal relative to 0 nM ([1]; 333.333 nM compound): 0.6411 | FP signal ([1]; 333.333 nM compound): 134 | FP signal (raw) ([1]; 1000 nM): 42 | FP signal relative to 0 nM ([1]; 1000 nM compound): 0.201 | FP signal ([1]; 1000 nM compound): 42 | FP signal (raw) ([1]; 3000 nM): 38 | FP signal relative to 0 nM ([1]; 3000 nM compound): 0.1818 | FP signal ([1]; 3000 nM compound): 38 | EC50 [1]: 392 nM | HepG2/SC5314 [1, 2]: 0.6913 | HepG2/SC5314 [1, 3]: 0.6913 | Ratio rel. GdA (HepG2) (Hsp90 in HEPG2 lysate; [4]): 15.9107 | Ratio rel. GdA (HepG2) (Hsp90 in HEPG2 lysate; [5]): 15.9107 | FP signal, Fxn Control (Hsp90 in HEPG2 lysate; [6]): 0.9806 | FP signal, Fxn Control (Hsp90 in HEPG2 lysate; [7]): 0.9951 | FP signal, Fxn Control (Hsp90 in HEPG2 lysate; [8]): 0.9951 | FP signal, Fxn Control (Hsp90 in HEPG2 lysate; [9]): 0.9612 | FP signal, Fxn Control (Hsp90 in HEPG2 lysate; [10]): 0.8592 | FP signal, Fxn Control (Hsp90 in HEPG2 lysate; [11]): 0.6117 | FP signal, Fxn Control (Hsp90 in HEPG2 lysate; [12]): 0.2524 | FP signal, Fxn Control (Hsp90 in HEPG2 lysate; [13]): 0.1893 | FP signal, Fxn Control (Hsp90 in HEPG2 lysate; [14]): 1.005 | FP signal (raw) (Hsp90 in HEPG2 lysate; 0.457 nM): 207 | FP signal (Hsp90 in HEPG2 lysate; 0.457 nM compound): 207 | FP signal (raw) (Hsp90 in HEPG2 lysate; 1.372 nM): 202 | FP signal (Hsp90 in HEPG2 lysate; 1.372 nM compound): 202 | FP signal (raw) (Hsp90 in HEPG2 lysate; 4.115 nM): 205 | FP signal (Hsp90 in HEPG2 lysate; 4.115 nM compound): 205 | FP signal (raw) (Hsp90 in HEPG2 lysate; 12.346 nM): 205 | FP signal (Hsp90 in HEPG2 lysate; 12.346 nM compound): 205 | FP signal (raw) (Hsp90 in HEPG2 lysate; 37.037 nM): 198 | FP signal (Hsp90 in HEPG2 lysate; 37.037 nM compound): 198 | FP signal (raw) (Hsp90 in HEPG2 lysate; 111.111 nM): 177 | FP signal (Hsp90 in HEPG2 lysate; 111.111 nM compound): 177 | FP signal (raw) (Hsp90 in HEPG2 lysate; 333.333 nM): 126 | FP signal (Hsp90 in HEPG2 lysate; 333.333 nM compound): 126 | FP signal (raw) (Hsp90 in HEPG2 lysate; 1000 nM): 52 | FP signal (Hsp90 in HEPG2 lysate; 1000 nM compound): 52 | FP signal (raw) (Hsp90 in HEPG2 lysate; 3000 nM): 39 | FP signal (Hsp90 in HEPG2 lysate; 3000 nM compound): 39 | EC50 (Hsp90 in HEPG2 lysate): 353 nM

CC1CC2OC2C=CC=CC(=NOCc2cccc(F)c2)Cc2c(Cl)c(O)cc(O)c2C(=O)O1 (mixture of isomers) [compound 227]
Ratio re. GdA [1]: 21.164 | FP signal (raw) ([1]; 0.457 nM): 194 | FP signal relative to 0 nM ([1]; 0.457 nM compound): 0.9652 | FP signal ([1]; 0.457 nM compound): 194 | FP signal (raw) ([1]; 1.372 nM): 195 | FP signal relative to 0 nM ([1]; 1.372 nM compound): 0.9701 | FP signal ([1]; 1.372 nM compound): 195 | FP signal (raw) ([1]; 4.115 nM): 190 | FP signal relative to 0 nM ([1]; 4.115 nM compound): 0.9453 | FP signal ([1]; 4.115 nM compound): 190 | FP signal (raw) ([1]; 12.346 nM): 193 | FP signal relative to 0 nM ([1]; 12.346 nM compound): 0.9602 | FP signal ([1]; 12.346 nM compound): 193 | FP signal (raw) ([1]; 37.037 nM): 178 | FP signal relative to 0 nM ([1]; 37.037 nM compound): 0.8856 | FP signal ([1]; 37.037 nM compound): 178 | FP signal (raw) ([1]; 111.111 nM): 162 | FP signal relative to 0 nM ([1]; 111.111 nM compound): 0.806 | FP signal ([1]; 111.111 nM compound): 162 | FP signal (raw) ([1]; 333.333 nM): 111 | FP signal relative to 0 nM ([1]; 333.333 nM compound): 0.5522 | FP signal ([1]; 333.333 nM compound): 111 | FP signal (raw) ([1]; 1000 nM): 56 | FP signal relative to 0 nM ([1]; 1000 nM compound): 0.2786 | FP signal ([1]; 1000 nM compound): 56 | FP signal (raw) ([1]; 3000 nM): 32 | FP signal relative to 0 nM ([1]; 3000 nM compound): 0.1592 | FP signal ([1]; 3000 nM compound): 32 | EC50 [1]: 360 nM | HepG2/SC5314 [1, 2]: 1.415 | HepG2/SC5314 [1, 3]: 1.415 | Ratio rel. GdA (HepG2) (Hsp90 in HEPG2 lysate; [4]): 29.9414 | Ratio rel. GdA (HepG2) (Hsp90 in HEPG2 lysate; [5]): 29.9414 | FP signal, Fxn Control (Hsp90 in HEPG2 lysate; [6]): 0.976 | FP signal, Fxn Control (Hsp90 in HEPG2 lysate; [7]): 0.9615 | FP signal, Fxn Control (Hsp90 in HEPG2 lysate; [8]): 0.9712 | FP signal, Fxn Control (Hsp90 in HEPG2 lysate; [9]): 0.9519 | FP signal, Fxn Control (Hsp90 in HEPG2 lysate; [10]): 0.9038 | FP signal, Fxn Control (Hsp90 in HEPG2 lysate; [11]): 0.7933 | FP signal, Fxn Control (Hsp90 in HEPG2 lysate; [12]): 0.399 | FP signal, Fxn Control (Hsp90 in HEPG2 lysate; [13]): 0.1923 | FP signal, Fxn Control (Hsp90 in HEPG2 lysate; [14]): 0.976 | FP signal (raw) (Hsp90 in HEPG2 lysate; 0.457 nM): 203 | FP signal (Hsp90 in HEPG2 lysate; 0.457 nM compound): 203 | FP signal (raw) (Hsp90 in HEPG2 lysate; 1.372 nM): 203 | FP signal (Hsp90 in HEPG2 lysate; 1.372 nM compound): 203 | FP signal (raw) (Hsp90 in HEPG2 lysate; 4.115 nM): 200 | FP signal (Hsp90 in HEPG2 lysate; 4.115 nM compound): 200 | FP signal (raw) (Hsp90 in HEPG2 lysate; 12.346 nM): 202 | FP signal (Hsp90 in HEPG2 lysate; 12.346 nM compound): 202 | FP signal (raw) (Hsp90 in HEPG2 lysate; 37.037 nM): 198 | FP signal (Hsp90 in HEPG2 lysate; 37.037 nM compound): 198 | FP signal (raw) (Hsp90 in HEPG2 lysate; 111.111 nM): 188 | FP signal (Hsp90 in HEPG2 lysate; 111.111 nM compound): 188 | FP signal (raw) (Hsp90 in HEPG2 lysate; 333.333 nM): 165 | FP signal (Hsp90 in HEPG2 lysate; 333.333 nM compound): 165 | FP signal (raw) (Hsp90 in HEPG2 lysate; 1000 nM): 83 | FP signal (Hsp90 in HEPG2 lysate; 1000 nM compound): 83 | FP signal (raw) (Hsp90 in HEPG2 lysate; 3000 nM): 40 | FP signal (Hsp90 in HEPG2 lysate; 3000 nM compound): 40 | EC50 (Hsp90 in HEPG2 lysate): 664 nM
